In US20220347180A1, “ENHANCING CANCER THERAPY TREATMENT WITH BH3 MIMETICS” (THE REGENTS OF THE UNIVERSITY OF COLORADO, A BODY CORPORATE, priority 2019, published 2022):
“Also recorded” adds a separate entry of the source. Read-outs that look alike come from different tables or passages of the source.

What was measured:
WM852c melanoma line = assay: ATP viability assay (Cell Titer-Glo); format: cell-based; conditions: Homo sapiens, NRAS, 48 h
Protocol: (§1) Cells were treated for 48 h for viability assays and primary sphere assays.
(§2) ATP viability assay, primary and secondary sphere assays: Cell viability was evaluated via Cell Titer-Glo Luminescent cell viability assay (Promega Corp., Madison, Wis.) according to the manufacturer's protocol. All sphere assays were completed as previously described. The experimental schematic for the primary and secondary sphere assays was described previously. All assays were performed in no less than triplicate for each cell line and repeated at least three times for each line. Drug treatments began 120 h after seeding in the primary sphere assay and 24 h after seeding for the monolayer ATP assay.
(§3) Calculation of IC50 and Combination index (CI) values: IC50 values were calculated from the relative viability results of ATP assays, and were derived by a sigmoidal dose (log)-response (variable slope) curve with GraphPad Prism 8 software. […] This method uses a median-effect equation and Combination-index theorem to calculate synergy between two drugs and identifies the drug interaction as values […]. This is defined as combination-index values (CI values). The program requires entering a series of “dose (D) and effect (fa)” into the program for each drug alone as well as the combination therapy.

MB3429 melanoma line = assay: ATP viability assay (Cell Titer-Glo); format: cell-based; conditions: Homo sapiens, 48 h
Protocol: as §1, §2, §3

MB3616 melanoma line = assay: ATP viability assay (Cell Titer-Glo); format: cell-based; conditions: Homo sapiens; MB3616, NRAS Q61K, 48 h
Protocol: as §1, §2, §3

MB2114 melanoma line = assay: ATP viability assay (Cell Titer-Glo); format: cell-based; conditions: Homo sapiens; MB2114, BRAF V600E, 48 h
Protocol: as §1, §2, §3

MB3447 melanoma line = assay: ATP viability assay (Cell Titer-Glo); format: cell-based; conditions: Homo sapiens; MB3447, Triple WT, 48 h
Protocol: as §1, §2, §3

MB2141 melanoma line = assay: ATP viability assay (Cell Titer-Glo); format: cell-based; conditions: Homo sapiens; MB2141, EML4-ALK, mucosal, 48 h
Protocol: as §1, §2, §3

MB1692 melanoma line = assay: ATP viability assay (Cell Titer-Glo); format: cell-based; conditions: Homo sapiens; MB1692, AGK-BRAF, 48 h
Protocol: as §1, §2, §3

1205Lu melanoma line = assay: ATP viability assay (Cell Titer-Glo); format: cell-based; conditions: Homo sapiens, BRAFV600E, 48 h
Protocol: as §1, §2, §3

MB2724 melanoma line = assay: ATP viability assay (Cell Titer-Glo); format: cell-based; conditions: Homo sapiens; MB2724, Triple WT, acral, 48 h
Protocol: as §1, §2, §3

MB4667 melanoma line = assay: ATP viability assay (Cell Titer-Glo); format: cell-based; conditions: Homo sapiens; MB4667, NRAS Q61R, acral, 48 h
Protocol: as §1, §2, §3

SKMEL-28 melanoma line = assay: ATP viability assay (Cell Titer-Glo); format: cell-based; conditions: Homo sapiens, SK-MEL-28; SKMEL-28, BRAFV600E, 48 h
Protocol: as §1, §2, §3

A375 melanoma line = assay: ATP viability assay (Cell Titer-Glo); format: cell-based; conditions: Homo sapiens, A-375; A375, BRAFV600E, 48 h
Protocol: as §1, §2, §3

MB3961 melanoma line = assay: ATP viability assay (Cell Titer-Glo); format: cell-based; conditions: Homo sapiens; MB3961, NRAS Q61K, 48 h
Protocol: as §1, §2, §3

Hs294T melanoma line = assay: ATP viability assay (Cell Titer-Glo); format: cell-based; conditions: Homo sapiens, Hs 294T, WT for BRAF/NRAS, 48 h
Protocol: as §1, §2, §3

Hs852T melanoma line = assay: ATP viability assay (Cell Titer-Glo); format: cell-based; conditions: Homo sapiens, WT for BRAF, 48 h
Protocol: as §1, §2, §3

[1] = higher doses and more frequently than in the current study; cited from earlier work
[2] = test system: regulatory T cells (Tregs); conditions: cited from earlier work
MP41 = MP41 uveal melanoma xenograft
Protocol: A uveal melanoma cell line, MP41, was used in the xenograft study, and tumor volume Panel (a) and weight of the mice Panel (b) were measured.
The viability of the DMSO control for each cell line was set to 100%. Panel (c) A uveal melanoma line, MP41, was used in the xenograft study, and tumor volume and weight of the mice were measured.
Drug treatments started when the tumors were palpable. Treatment groups consisted of randomly divided mice of at least 8 tumors each group. All drugs were prepared according to the manufacturer's protocol, or previously described. S63845 was administered at 25 mg/kg twice weekly. […] The tumor samples were collected at the end of the experiment for further studies.

A375 cells = assay: Viability of A375 cells with BCL2 or MCL1 knockdown; format: cell-based, human; conditions: A375, 48 h
Text: (a and b) Comparison between two genotypic groups: BRAF-hotspot mutated (MUT) (n=110) and BRAF-WT (WT) (harboring RAS hotspot mutated, any NF1 mutated, and triple wild type n=122). Panel (a) mRNA expression values for BCL2, CASP8, PDCD4, and MCL1. Panel (b) Relative RPPA protein expression values for PDCD4, CASP8, and BCL2. MCL1 was not included on the RPPA panel. Each dot represents an individual sample, and the horizontal line represents the mean. Panels (c) and (d) show the effects of BCL2 or MCL1 knockdown in A375 cells. Cells were treated with the indicated drugs for 48 h. […] Error bars represent +/−SEM.
Creation of short hairpin RNA transduced cell lines and CRISPR/Cas9-mediated BIM knockout cell lines: ShRNA lentiviral particles (Santa Cruz Biotechnology, Dallas, Tex.) were used to construct stable cell lines as previously described. BIM-knockout lines were generated using CRISPR/Cas9 technology, as previously described.

[3] = test system: tumor-infiltrating immune cells; assay: Flow cytometry of tumor-infiltrating immune cells, B16 syngeneic model; format: in vivo, mouse; conditions: 40 mg/kg, day 10 post tumor implantation
Protocol: (§4) 2.0×10^5 B16F10 melanoma cells were injected in the flanks of 7-week-old C57BL/6J mice on day 0. MCL1 inhibitors was administered retro-orbitally daily at 40 mg/kg, starting at day 6 post tumor implantation. […] Flow cytometry of tumor-infiltrating immune cells of Veh (vehicle control) and 40 mg/kg MCL1 inhibitor S63845 treated tumors at day 10 post tumor implantation. […] Similar experiments as in a, except with i.p injection. […] 2.0×10^5 B16F10 melanoma cells were injected in the flanks of 7-week-old C57BL/6J mice. MCL1-i was administered through retro-orbital injection daily at 40 mg/kg on days 5-9, and anti-PD1 was injected intraperitoneally at 250 ug on days 7, 11, 14 and 16.
(§5) Tumor volume was measured every 2 days with digital calipers. The following formula was used to calculate tumor volume: tumor volume (mm3)=(length in mm×width in mm2)/2.

human melanoma lines = assay: ATP viability assay, panel of melanoma lines; format: cell-based; conditions: single drug, up to 2.5 uM, 48 h
Protocol: as §1, §2, §3

B16F10 melanoma cells = format: in vivo; conditions: retro-orbitally daily at 40 mg/kg from day 6 post implantation
Protocol: as §4, §5
Tumor volume was measured every 2 days with digital calipers.

| Structure (SMILES) | IC50 (WM852c melanoma line) [µM] | IC50 (MB3616 melanoma line) [µM] | IC50 (MB2114 melanoma line) [µM] | IC50 (MB3447 melanoma line) [µM] | IC50 (MB2141 melanoma line) [µM] | IC50 (MB1692 melanoma line) [µM] | IC50 (1205Lu melanoma line) [µM] | IC50 (MB2724 melanoma line) [µM] | IC50 (MB4667 melanoma line) [µM] | IC50 (SKMEL-28 melanoma line) [µM] | IC50 (A375 melanoma line) [µM] | IC50 (MB3961 melanoma line) [µM] | IC50 (Hs294T melanoma line) [µM] | IC50 (Hs852T melanoma line) [µM] | other results |
| --- | --- | --- | --- | --- | --- | --- | --- | --- | --- | --- | --- | --- | --- | --- | --- |
| CC1(C)CCC(CN2CCN(c3ccc(C(=O)NS(=O)(=O)c4ccc(NCC5CCOCC5)c([N+](=O)[O-])c4)c(Oc4cnc5[nH]ccc5c4)c3)CC2)=C(c2ccc(Cl)cc2)C1 [ABT-199, venetoclax] | > 10 | 9.69 | > 10 | > 10 | > 10 | > 10 | > 10 | > 10 | 7.69 | > 10 | > 10 | > 10 | > 10 | 8.8 | IC50 (MB3429 melanoma line; MB3429, BRAF G596C, GNA11 R183C, read-out: IC50): 3.91 µM |
| Cc1c2c(nn1C)CSCc1cc(n(C)n1)CSc1cc(c3ccccc3c1)OCCCc1c(C(=O)O)n(C)c3c-2c(Cl)ccc13 [AZD5991] | – | – | – | – | – | – | – | – | – | – | – | – | – | – | toxicity [1]: Minimal toxicity |
| COC1=CC(c2cc3ccccc3[nH]2)=N/C1=C\c1[nH]c(C)cc1C [GX15-070] | – | – | – | – | – | – | – | – | – | – | – | – | – | – | cell death of regulatory T cells [2]: preferentially induces cell death |
| Cc1c(-c2c(-c3ccc(F)o3)sc3ncnc(O[C@H](Cc4ccccc4OCc4ccnn4CC(F)(F)F)C(=O)O)c23)ccc(OCCN2CCN(C)CC2)c1Cl [S63845] | 7.81 | 8.11 | > 10 | 5.49 | 2.67 | 7.42 | 7.2 | 3.24 | > 10 | 4 | 6.33 | 2.91 | 2.9 | 6.14 | mouse weight (MP41): without affecting mouse weight; tumor growth (tumor volume) (MP41): significantly inhibited uveal melanoma tumor growth; sensitivity after BCL2 knockdown (shBCL2) (A375 cells): sensitized cells; frequency of MDSCs in tumors [3]: drastically decreased; frequency of tumor-infiltrating CD8+ T cells [3]: increased; effect on cell viability (human melanoma lines): little effect on cell viability; tumor growth (B16F10 melanoma cells): blocked tumor growth; also recorded: inhibited tumor growth curve; IC50 (MB3429 melanoma line): 8.85 µM |
